According to patent US9920057B2, “Substituted pyrazino[1′,2′:1 ,6]pyrido[3,4-b]indoles as phosphodiesterase type 5 inhibitors” (Chongqing University of Arts and Sciences, priority 2015, dated 2018):
“And” between values parts separate entries of the source, which are not always exact repeats. Identical values can stand only once. Like-named read-outs stand apart in the source and are kept apart here.

Legend:
PDE5A = molecular target: T1, PDE5A (Homo sapiens, UniProt O76074); experiment: Inhibition against PDE5 (Homogenous Time Resolve Fluoresce); format: biochemical; details: HTF
T1 construct: purchased SIGMA-ALDRICH E904
Protocol: Method: IC50 of an inhibition effect on PDE5A (E904, SIGMA-ALDRICH) of test compounds was tested by using Sildenafil (S1431, selleck) as a positive control sample and the method of Homogenous Time Resolve Fluoresce, HTF (Cat. No. 62GM2PEB, Cisbio.)

[1] = Study on pharmacokinetics in rats, oral administration; format: in vivo, SD rat
Protocol: Sample Preparation Method: One step protein precipitation
Precipitant: ACN, with concentration of Verapamil (5.00 ng·mL-1)
Calibration Curve and QC samples Preparation: 5.00 μL each of the calibration or QC working solution and 45.0 μL of blank plasma were transferred into a 1.5-mL microcentrifuge tube. Final standard curve concentration levels were 1.00, 2.50, 5.00, 10.0, 50.0, 100, 500 and 1000 ng·mL-1. The QC concentration levels were 2.50 or 5.00, 50.0 and 800 ng·mL-1. Dilution QC was 5000 ng·mL-1.
Plasma Samples Preparation: Aliquots of 10.0 μL of real samples, calibration curve samples and QC samples were supplemented with 100 μL of precipitant. After vortexed for 3.00 min and centrifuged at 12000 rpm for 5.00 min, the supernatant 10 μL was injected for LC-MS/MS analysis.
Number of Rats/Group: 3/group
Administration Route: oral administration
Blood Collection Time: 0 min, 15 min, 30 min, 1 h, 2 h, 4 h, 6 h, 8 h, 24 h

normal rat = experiment: Erectile function of normal rat: blood pressure, intracavernous pressure and detumescence time on cavernous nerve stimulation; format: in vivo
Protocol: Rats were anesthetized with 2% pentobarbital […], then incision was made in the right side of neck, a PE-50 silicon tube connected with a pressure transducer was inserted into the carotid artery, to record the change of the blood pressure.
The erectile activity was induced by a bipolar stainless-steel, stimulus parameters at a pulse width of […], stimulation frequency of 7.98 Hz, current of 3 mA, stimulation duration of 40 s, and then record the intracavernous pressure (ICP).
Assessment of erectile function: ICP, BP, change of ICP and detumescence time were monitored though electric cavernous nerve stimulation at 2, 6 and 24 hours post dosing. Erectile function was evaluated by change of ICP and detumescence time.

PDE11A = molecular target: T2, PDE11A (Homo sapiens, UniProt Q9HCR9); experiment: Inhibition of PDE activity (assay kit); format: biochemical
T2 construct: purchased
Protocol: (§1) i. Supplement 99 μl assay buffer per well, then add 1 μl compound in DMSO dilution to wells of V96 MicroWell Plates and uniformly mix;
(§2) ii. Add 5 μl compound in assay buffer dilution to each well of 96-well microplate;
(§3) the final concentration of compound as below:
(§4) The inhibitory potential of test compounds on several types of phosphodiesterase (PDE) activity is determined according to the protocol of assay kit.

PDE1A = molecular target: T3, PDE1A (Homo sapiens, UniProt P54750); experiment: Inhibition of PDE activity (assay kit); format: biochemical
T3 construct: purchased
Protocol: as §1, §2, §3, §4

PDE2A = molecular target: T4, PDE2A (Homo sapiens, UniProt O00408); experiment: Inhibition of PDE activity (assay kit); format: biochemical
T4 construct: purchased
Protocol: as §1, §2, §3, §4

PDE3A = molecular target: T5, PDE3A (Homo sapiens, UniProt Q14432); experiment: Inhibition of PDE activity (assay kit); format: biochemical
T5 construct: purchased
Protocol: as §1, §2, §3, §4

PDE4A = molecular target: T6, PDE4A (Homo sapiens, UniProt P27815); experiment: Inhibition of PDE activity (assay kit); format: biochemical
T6 construct: purchased
Protocol: as §1, §2, §3, §4

PDE6C = molecular target: T7, PDE6C (Homo sapiens, UniProt P51160); experiment: Inhibition of PDE activity (assay kit); format: biochemical
T7 construct: purchased
Protocol: as §1, §2, §3, §4

PDE7A = molecular target: T8, PDE7A (Homo sapiens, UniProt Q13946); experiment: Inhibition of PDE activity (assay kit); format: biochemical
T8 construct: purchased
Protocol: as §1, §2, §3, §4

[2] = Mean of 3 rats, oral 10.0 mg · kg^−1
[3] = individual rats, oral 10.0 mg · kg^−1
[4] = 2 hours after dosing, High dose
[5] = 2 hours after dosing, Middle dose
[6] = 6 hours after dosing, High dose
[7] = 6 hours after dosing, Middle dose
[8] = 24 hours after dosing, High dose
[9] = 24 hours after dosing, Low dose
[10] = 24 hours after dosing, Middle dose

T4 sequence (O00408 whole entry): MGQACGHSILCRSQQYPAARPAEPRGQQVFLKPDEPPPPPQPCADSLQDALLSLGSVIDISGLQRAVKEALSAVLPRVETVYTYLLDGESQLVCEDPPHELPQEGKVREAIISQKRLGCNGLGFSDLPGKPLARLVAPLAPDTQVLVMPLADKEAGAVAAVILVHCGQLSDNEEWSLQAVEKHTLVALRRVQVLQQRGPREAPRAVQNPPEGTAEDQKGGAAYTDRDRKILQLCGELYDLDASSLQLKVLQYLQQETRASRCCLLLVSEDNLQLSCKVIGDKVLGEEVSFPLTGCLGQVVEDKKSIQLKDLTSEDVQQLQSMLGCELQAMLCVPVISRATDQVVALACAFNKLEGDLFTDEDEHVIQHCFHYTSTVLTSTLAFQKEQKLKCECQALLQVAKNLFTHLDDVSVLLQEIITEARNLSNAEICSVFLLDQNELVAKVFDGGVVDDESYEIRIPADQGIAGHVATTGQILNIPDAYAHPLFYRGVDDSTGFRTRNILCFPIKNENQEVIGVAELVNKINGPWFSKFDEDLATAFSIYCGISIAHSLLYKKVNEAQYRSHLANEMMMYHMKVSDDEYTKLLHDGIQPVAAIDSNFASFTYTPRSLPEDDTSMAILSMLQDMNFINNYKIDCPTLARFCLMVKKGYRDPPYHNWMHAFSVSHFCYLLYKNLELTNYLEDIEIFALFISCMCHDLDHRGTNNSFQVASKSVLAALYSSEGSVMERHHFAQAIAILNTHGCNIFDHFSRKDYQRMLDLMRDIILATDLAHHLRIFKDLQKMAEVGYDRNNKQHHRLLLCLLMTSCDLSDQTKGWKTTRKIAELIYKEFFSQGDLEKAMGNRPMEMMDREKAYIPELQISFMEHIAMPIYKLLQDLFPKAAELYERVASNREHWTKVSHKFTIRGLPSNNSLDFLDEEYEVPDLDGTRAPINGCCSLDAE
T8 sequence (Q13946 whole entry): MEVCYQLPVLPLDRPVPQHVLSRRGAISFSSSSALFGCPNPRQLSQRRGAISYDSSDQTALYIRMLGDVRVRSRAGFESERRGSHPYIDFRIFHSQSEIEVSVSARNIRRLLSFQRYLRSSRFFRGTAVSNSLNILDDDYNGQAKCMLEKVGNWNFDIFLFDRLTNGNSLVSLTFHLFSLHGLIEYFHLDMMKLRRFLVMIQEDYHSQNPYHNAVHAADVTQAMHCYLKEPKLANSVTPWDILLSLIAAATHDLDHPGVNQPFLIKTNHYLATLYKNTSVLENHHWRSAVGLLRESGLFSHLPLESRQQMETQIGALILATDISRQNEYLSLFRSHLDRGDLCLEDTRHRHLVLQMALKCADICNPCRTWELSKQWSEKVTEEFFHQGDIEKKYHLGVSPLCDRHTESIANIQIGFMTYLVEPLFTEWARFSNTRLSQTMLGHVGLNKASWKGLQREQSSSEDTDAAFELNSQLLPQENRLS
T6 sequence (P27815 1-647 isoform P27815-4): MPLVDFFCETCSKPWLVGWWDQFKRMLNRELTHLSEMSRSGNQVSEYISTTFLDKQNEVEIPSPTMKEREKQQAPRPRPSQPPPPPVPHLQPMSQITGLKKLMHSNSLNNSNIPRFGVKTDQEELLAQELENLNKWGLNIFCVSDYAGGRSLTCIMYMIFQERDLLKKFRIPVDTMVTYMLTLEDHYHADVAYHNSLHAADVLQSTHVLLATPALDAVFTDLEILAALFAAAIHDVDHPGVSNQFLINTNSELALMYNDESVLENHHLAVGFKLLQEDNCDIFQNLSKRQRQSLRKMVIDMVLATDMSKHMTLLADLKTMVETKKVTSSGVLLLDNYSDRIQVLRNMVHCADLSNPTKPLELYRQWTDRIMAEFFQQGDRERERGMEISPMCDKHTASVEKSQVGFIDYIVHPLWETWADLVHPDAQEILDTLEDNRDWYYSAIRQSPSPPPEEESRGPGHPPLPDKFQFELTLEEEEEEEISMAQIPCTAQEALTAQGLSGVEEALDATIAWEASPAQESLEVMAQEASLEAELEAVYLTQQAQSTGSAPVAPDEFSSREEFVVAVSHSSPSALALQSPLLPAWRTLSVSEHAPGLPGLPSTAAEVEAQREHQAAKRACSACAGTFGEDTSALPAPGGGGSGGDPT
T2 sequence (Q9HCR9 whole entry): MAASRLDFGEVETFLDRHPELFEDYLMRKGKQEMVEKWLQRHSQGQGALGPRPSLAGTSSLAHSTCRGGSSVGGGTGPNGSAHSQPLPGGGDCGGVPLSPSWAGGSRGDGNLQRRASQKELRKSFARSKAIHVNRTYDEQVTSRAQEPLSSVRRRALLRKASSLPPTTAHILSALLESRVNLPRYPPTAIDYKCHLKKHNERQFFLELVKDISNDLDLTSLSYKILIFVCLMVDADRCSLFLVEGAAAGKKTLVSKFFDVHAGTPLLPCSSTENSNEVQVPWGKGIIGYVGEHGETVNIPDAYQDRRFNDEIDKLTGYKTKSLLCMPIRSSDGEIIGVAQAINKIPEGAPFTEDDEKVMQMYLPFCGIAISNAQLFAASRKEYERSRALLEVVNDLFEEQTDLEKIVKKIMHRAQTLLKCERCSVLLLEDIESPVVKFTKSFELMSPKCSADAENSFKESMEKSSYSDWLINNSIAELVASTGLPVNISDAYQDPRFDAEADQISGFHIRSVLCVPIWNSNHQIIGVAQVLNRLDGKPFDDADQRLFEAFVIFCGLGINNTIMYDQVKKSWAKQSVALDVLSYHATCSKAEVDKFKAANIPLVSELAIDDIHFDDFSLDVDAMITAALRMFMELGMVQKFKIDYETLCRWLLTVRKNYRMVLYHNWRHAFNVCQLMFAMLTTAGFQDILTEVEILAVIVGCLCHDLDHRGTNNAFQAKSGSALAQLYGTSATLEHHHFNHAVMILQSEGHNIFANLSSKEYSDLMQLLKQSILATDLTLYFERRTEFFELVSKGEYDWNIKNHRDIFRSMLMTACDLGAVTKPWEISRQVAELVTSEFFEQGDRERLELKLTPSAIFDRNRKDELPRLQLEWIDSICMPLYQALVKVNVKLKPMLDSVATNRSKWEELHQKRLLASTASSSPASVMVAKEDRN
T5 sequence (Q14432 whole entry): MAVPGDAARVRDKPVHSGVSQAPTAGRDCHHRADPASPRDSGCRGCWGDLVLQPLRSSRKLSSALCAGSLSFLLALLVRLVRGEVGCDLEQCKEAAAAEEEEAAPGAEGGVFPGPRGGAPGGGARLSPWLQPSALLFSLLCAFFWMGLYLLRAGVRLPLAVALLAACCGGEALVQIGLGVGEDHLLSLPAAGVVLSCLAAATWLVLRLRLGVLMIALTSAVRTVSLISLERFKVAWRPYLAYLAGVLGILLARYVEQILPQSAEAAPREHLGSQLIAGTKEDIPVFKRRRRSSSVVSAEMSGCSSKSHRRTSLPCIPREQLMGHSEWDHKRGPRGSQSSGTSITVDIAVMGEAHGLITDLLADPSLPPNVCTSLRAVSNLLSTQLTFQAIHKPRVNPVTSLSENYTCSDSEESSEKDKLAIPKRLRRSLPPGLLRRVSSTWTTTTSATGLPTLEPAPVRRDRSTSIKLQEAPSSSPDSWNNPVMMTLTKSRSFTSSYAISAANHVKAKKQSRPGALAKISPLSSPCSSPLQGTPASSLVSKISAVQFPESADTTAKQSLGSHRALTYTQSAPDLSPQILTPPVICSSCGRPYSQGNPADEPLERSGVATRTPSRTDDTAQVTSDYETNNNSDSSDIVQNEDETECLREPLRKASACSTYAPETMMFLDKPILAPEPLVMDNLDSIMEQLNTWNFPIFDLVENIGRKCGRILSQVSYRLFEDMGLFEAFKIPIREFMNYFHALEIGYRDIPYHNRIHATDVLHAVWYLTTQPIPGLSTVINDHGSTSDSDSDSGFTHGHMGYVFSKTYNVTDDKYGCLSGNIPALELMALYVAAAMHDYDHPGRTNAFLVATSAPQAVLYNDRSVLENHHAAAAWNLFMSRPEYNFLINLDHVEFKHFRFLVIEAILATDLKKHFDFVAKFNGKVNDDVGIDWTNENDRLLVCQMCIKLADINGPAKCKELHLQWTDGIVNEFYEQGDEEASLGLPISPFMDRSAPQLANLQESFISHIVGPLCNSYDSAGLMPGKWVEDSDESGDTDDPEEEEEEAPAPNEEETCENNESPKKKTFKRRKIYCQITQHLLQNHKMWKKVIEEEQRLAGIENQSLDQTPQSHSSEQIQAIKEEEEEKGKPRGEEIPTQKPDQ
T3 sequence (P54750 whole entry): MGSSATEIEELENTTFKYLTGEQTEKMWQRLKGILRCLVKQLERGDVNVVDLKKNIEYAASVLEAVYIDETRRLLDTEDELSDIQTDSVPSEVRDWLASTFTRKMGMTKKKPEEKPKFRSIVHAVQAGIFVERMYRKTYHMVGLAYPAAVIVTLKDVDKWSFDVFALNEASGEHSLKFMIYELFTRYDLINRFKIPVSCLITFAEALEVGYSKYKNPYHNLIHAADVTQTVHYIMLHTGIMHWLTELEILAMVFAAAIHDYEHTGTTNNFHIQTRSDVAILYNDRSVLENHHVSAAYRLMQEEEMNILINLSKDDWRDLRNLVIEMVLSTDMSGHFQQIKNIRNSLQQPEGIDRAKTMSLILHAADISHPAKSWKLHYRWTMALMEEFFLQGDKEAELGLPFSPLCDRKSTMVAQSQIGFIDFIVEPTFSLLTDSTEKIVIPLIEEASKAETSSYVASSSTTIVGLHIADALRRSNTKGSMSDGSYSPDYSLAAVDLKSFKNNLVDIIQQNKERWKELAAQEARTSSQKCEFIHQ

[2H]C1([2H])Oc2ccc([C@@H]3c4[nH]c5ccccc5c4C[C@@H]4C(=O)N(N)CC(=O)N34)cc2O1 [DDCI-01, (6R,12aR)-2-amino-6-(benzo[d][1,3]dioxol-5-yl-2,2-d2)-2,3,6,7,12,12a-hexahydropyrazino[1′,2′:1,6]pyrido[3,4-b]indole-1,4-dione]
IC50 (PDE5A): 0.0336 µM | AUMC0-inf [1, 2]: 50280 h · h · ng · mL^−1 | AUMC0-t [1, 2]: 49982 h · h · ng · mL^−1 | Kel [1, 2]: 0.305 h⁻¹ | MRTPO [1, 2]: 4.68 h | half-life (T1/2), comparison in words ([1]; SD rat, oral, compared with Cialis and DDCI02): slightly shorter than that of Cialis and significantly shorter than that of DDCI02 | half-life ([1]; SD, rat, plasma, po, 10 mg/kg, Mean of 3 rats, oral 10.0 mg · kg^−1): 2.29 h | AUC0-inf ([1]; SD, rat, plasma, po, 10 mg/kg, Mean of 3 rats, oral 10.0 mg · kg^−1, read-out: AUC0-inf): 10800 ng·h/mL | AUC0-t ([1]; SD, rat, plasma, po, 10 mg/kg, Mean of 3 rats, oral 10.0 mg · kg^−1, read-out: AUC0-t): 10800 ng·h/mL | Cmax ([1]; SD, rat, plasma, po, 10 mg/kg, Mean of 3 rats, oral 10.0 mg · kg^−1, read-out: Cmax): 1470 ng/mL | half-life ([1]; SD, rat, plasma, po, 10 mg/kg, individual rats, oral 10.0 mg · kg^−1): 2.12 h | AUC0-inf ([1]; SD, rat, plasma, po, 10 mg/kg, individual rats, oral 10.0 mg · kg^−1, read-out: AUC0-inf): 9980 ng·h/mL | AUC0-t ([1]; SD, rat, plasma, po, 10 mg/kg, individual rats, oral 10.0 mg · kg^−1, read-out: AUC0-t): 9970 ng·h/mL | Cmax ([1]; SD, rat, plasma, po, 10 mg/kg, individual rats, oral 10.0 mg · kg^−1, read-out: Cmax): 1300 ng/mL | Tmax ([1]; SD, rat, plasma, individual rats, oral 10.0 mg · kg^−1): 2 h | AUC0-inf [1, 3]: 11221 ng·h/mL and 11087 ng·h/mL | AUC0-t [1, 3]: 11202 ng·h/mL and 11080 ng·h/mL | AUMC0-inf [1, 3]: 48665 h · h · ng · mL^−1 and 51065 h · h · ng · mL^−1 and 51110 h · h · ng · mL^−1 | AUMC0-t [1, 3]: 48497 h · h · ng · mL^−1 and 50539 h · h · ng · mL^−1 and 50911 h · h · ng · mL^−1 | Cmax [1, 3]: 1574 ng/mL and 1528 ng/mL | Kel [1, 3]: 0.327 h⁻¹ and 0.269 h⁻¹ and 0.319 h⁻¹ | MRTPO [1, 3]: 4.88 h and 4.55 h and 4.61 h | t1/2 [1, 3]: 2.58 h and 2.17 h | Cmax and Auc, comparison in words ([1]; rat, oral, compared with Cialis): more excellent than those of Cialis | BP after stimulation (normal rat; [4]): 60.97 ± 19.95 mmHg | BP before stimulation (normal rat; [4]): 91.86 ± 21.57 mmHg | Change of BP (normal rat; [4]): 30.89 ± 4.09 mmHg | Change of ICP (normal rat; [4]): 41.20 ± 9.83 mmHg | Detumescence Time (normal rat; [4]): 101.00 ± 21.56 s | ICP after stimulation (normal rat; [4]): 52.25 ± 9.49 mmHg | ICP before stimulation (normal rat; [4]): 11.05 ± 3.25 mmHg | BP after stimulation (normal rat; 2 hours after dosing, Low dose): 63.89 ± 2.93 mmHg | BP before stimulation (normal rat; 2 hours after dosing, Low dose): 97.43 ± 11.45 mmHg | Change of BP (normal rat; 2 hours after dosing, Low dose): 33.54 ± 13.57 mmHg | Change of ICP (normal rat; 2 hours after dosing, Low dose): 31.38 ± 3.09 mmHg | Detumescence Time (normal rat; 2 hours after dosing, Low dose): 38.00 ± 10.42 s | ICP after stimulation (normal rat; 2 hours after dosing, Low dose): 42.86 ± 5.14 mmHg | ICP before stimulation (normal rat; 2 hours after dosing, Low dose): 11.48 ± 4.57 mmHg | BP after stimulation (normal rat; [5]): 70.38 ± 7.82 mmHg | BP before stimulation (normal rat; [5]): 96.49 ± 7.55 mmHg | Change of BP (normal rat; [5]): 26.12 ± 3.04 mmHg | Change of ICP (normal rat; [5]): 33.09 ± 7.46 mmHg | Detumescence Time (normal rat; [5]): 40.75 ± 4.79 s | ICP after stimulation (normal rat; [5]): 41.58 ± 7.94 mmHg | ICP before stimulation (normal rat; [5]): 8.49 ± 2.06 mmHg | BP after stimulation (normal rat; [6]): 50.09 ± 22.36 mmHg | BP before stimulation (normal rat; [6]): 76.38 ± 21.11 mmHg | Change of BP (normal rat; [6]): 26.29 ± 1.54 mmHg | Change of ICP (normal rat; [6]): 41.74 ± 7.92 mmHg | Detumescence Time (normal rat; [6]): 64.00 ± 19.37 s | ICP after stimulation (normal rat; [6]): 50.94 ± 11.12 mmHg | ICP before stimulation (normal rat; [6]): 9.20 ± 8.79 mmHg | BP after stimulation (normal rat; 6 hours after dosing, Low dose): 61.78 ± 17.93 mmHg | BP before stimulation (normal rat; 6 hours after dosing, Low dose): 95.73 ± 18.25 mmHg | Change of BP (normal rat; 6 hours after dosing, Low dose): 33.95 ± 3.20 mmHg | Change of ICP (normal rat; 6 hours after dosing, Low dose): 31.38 ± 7.73 mmHg | Detumescence Time (normal rat; 6 hours after dosing, Low dose): 47.75 ± 11.79 s | ICP after stimulation (normal rat; 6 hours after dosing, Low dose): 40.36 ± 5.92 mmHg | ICP before stimulation (normal rat; 6 hours after dosing, Low dose): 8.98 ± 3.06 mmHg | BP after stimulation (normal rat; [7]): 61.03 ± 12.64 mmHg | BP before stimulation (normal rat; [7]): 92.91 ± 19.51 mmHg | Change of BP (normal rat; [7]): 31.88 ± 7.39 mmHg | Change of ICP (normal rat; [7]): 33.49 ± 8.09 mmHg | Detumescence Time (normal rat; [7]): 48.00 ± 23.85 s | ICP after stimulation (normal rat; [7]): 40.21 ± 8.37 mmHg | ICP before stimulation (normal rat; [7]): 6.72 ± 3.14 mmHg | BP after stimulation (normal rat; [8]): 52.95 ± 14.12 mmHg | BP before stimulation (normal rat; [8]): 94.16 ± 9.79 mmHg | Change of BP (normal rat; [8]): 41.21 ± 11.98 mmHg | Change of ICP (normal rat; [8]): 43.36 ± 4.90 mmHg | Detumescence Time (normal rat; [8]): 60.75 ± 24.14 s | ICP after stimulation (normal rat; [8]): 52.77 ± 2.07 mmHg | ICP before stimulation (normal rat; [8]): 9.41 ± 3.81 mmHg | BP after stimulation (normal rat; [9]): 72.34 ± 12.33 mmHg | BP before stimulation (normal rat; [9]): 108.36 ± 8.89 mmHg | Change of BP (normal rat; [9]): 36.03 ± 10.90 mmHg | Change of ICP (normal rat; [9]): 30.65 ± 0.98 mmHg | Detumescence Time (normal rat; [9]): 23.75 ± 12.84 s | ICP after stimulation (normal rat; [9]): 43.55 ± 5.05 mmHg | ICP before stimulation (normal rat; [9]): 12.91 ± 5.02 mmHg | BP after stimulation (normal rat; [10]): 69.85 ± 12.70 mmHg | BP before stimulation (normal rat; [10]): 102.18 ± 15.12 mmHg | Change of BP (normal rat; [10]): 32.33 ± 8.76 mmHg | Change of ICP (normal rat; [10]): 31.58 ± 5.75 mmHg | Detumescence Time (normal rat; [10]): 41.25 ± 14.50 s | ICP after stimulation (normal rat; [10]): 40.00 ± 5.56 mmHg | ICP before stimulation (normal rat; [10]): 8.41 ± 1.86 mmHg | erectile function of the normal rat model, result in words (normal rat; high, middle, and low doses, Tables 1-9): significantly improved the erectile function | IC50 (PDE11A): 2.6 µM and 2.64 µM | IC50 (PDE1A): > 10 µM | inhibition at 10 µM (PDE1A; at 10 μM): 0% | IC50 (PDE2A): > 10 µM | inhibition at 10 µM (PDE2A; at 10 μM): 0% | IC50 (PDE3A): > 10 µM | inhibition at 10 µM (PDE3A; at 10 μM): 0% | IC50 (PDE4A; PDE4A): > 10 µM | inhibition at 10 µM (PDE4A; PDE4A1A, at 10 μM): 0% | IC50 (PDE6C): 14.7 µM | IC50 (PDE7A): > 10 µM | inhibition at 10 µM (PDE7A; at 10 μM): 0%
